What all share (type): cell-based, human
Assay [1] has as its system HEK293 TRplp-fLUC and TRdm-fLUC subclones. The assay can be described thus: Cytotoxicity assay by immunofluorescence of fLUC protein. The note with it: 12 hr. An excerpt: To examine TR-mediated translation from the TR-fLUC cassettes, the translated fLUC protein requires immunolabeling with fluorescent antibodies. In this study, HEK293 cells transformed with the CMV-fLUC, TRplp-fLUC or TRdm-fLUC expression cassettes are visualized following immunodetection of the fLUC protein using a primary anti-fLUC antibody (Sigma) and a species-specific rhodamine-labeled secondary antibody (Kirkegaard and Perry Laboratories, Inc.). DAPI labeling of nuclear DNA is a well known procedure in the art and was used to label nuclei.
Forty hours prior to toxin exposure, 300,000 cells (HEK293, HEK293 CMV-fLUC, HEK293 TRplp-fLUC subclone #3, HEK293 TRplp-fLUC subclone #17, HEK293 TRdm-fLUC subclone #12, or HEK293 TRdm, fLUC subclone #45) were plated on flame sterilized glass coverslips in a 12-well tray. Cells are cultured in complete DMEM medium. Fresh medium supplemented with 6.7 micromolar calcium ionophore A23187 is applied and slides collected at 12 hr. […] After this, the coverslips are washed in 1×PBS, labeled with DAPI (30 sec, RT), washed in 1×PBS, and mounted for fluorescence microscopy.
In untreated cell cultures, the frequency of fLUC-positive cells ranged from 2.4-7.2%, which is 1-3 times higher than the normal frequency of nonviable cells, as determined by Trypan blue staining. […]

In the next assay the test system is HEK293 cells. The assay can be described thus: Trypan blue staining of HEK293 cells treated with toxic agents. The conditions noted are these: 5-6.7 micromolar, within 24 hr.
For assay [2], the system named is HEK293 cells transformed with the CMV-EYFP, TRplp-EYFP or TRdm-EYFP expression cassettes. Put plainly: Cytotoxicity assay by fluorescent microscopy, EYFP fluorescent cell counts. The note with it: 5 micromolar. An excerpt:
Fluorescence of single cells, tissues or cell suspensions can be detected and quantitated by several means such as visual inspection under a microscope, automated or semiautomated fluorescence imaging, flow cytometry, fluorescence spectroscopy in a fluorometer or in a microplate reader, using an appropriate filter set. For this example, visual inspection under a microscope (Nikon TE2000-S) was used to validate TR translational regulation in stressed and dying HEK293 cells expressing the TRplp-EYFP, TRdm-EYFP, TRplp-fLUC and TRdm-fLUC mRNAs.
In this study, HEK293 cells transformed with the CMV-EYFP, TRplp-EYFP or TRdm-EYFP expression cassettes are directly visualized following translation of the spontaneously fluorescent EYFP protein. One day prior to toxin addition, 200,000 cells (HEK293, HEK293 CMV-EYFP, HEK293 TRplp-EYFP or HEK293 TRdm-EYFP) are plated into a six-well tray containing a flame sterilized glass slide. […] Slides were fixed for 10 min in 4% paraformaldehyde, washed extensively with 1×PBS and mounted for fluorescence microscopy.
Fluorescent cell counts are performed on the 6 hr and 10 hr timepoints using an EYFP-selective filter set (Nikon) and are shown in FIG. 7. In untreated cell cultures, the frequency of EYFP-positive cells range from 1.5-2.5%, which is consistent with the frequency of nonviable cells in these cultures, as determined by Trypan blue staining. […]

The subject of assay [3] is HEK293 TRplp-EYFP and TRplp-fLUC colonies. The assay can be described thus: Microplate reader screen at fixed time and toxin concentration. The note with it: 12 hr. The method, then:
For this example, HEK293 cells expressing the TRplp-EYFP, TRdm-EYFP, TRplp fLUC and TRdm-fLUC expression cassettes are evaluated using a microplate reader. To quantitate the TR translational response, 24,000 cells are plated in a 96-well microtiter plates and allowed to grow for about 40 hr to achieve the proper cell density prior to incubation with a toxic agent. Each well is cultured with complete DMEM medium containing either no toxin or a defined concentration of toxin and incubated at 37 C for specific time periods. At that time, fluorescence or chemiluminescence on a FLUOstar Optima (BMG Labtech) microplate reader is used measure TR-ORF response.
Direct detection of the spontaneously fluorescent EYFP protein fluorophore is achieved by excitation of samples in black optical bottom 96-well trays with a fluorescein filter (545 nm) or a YFP filter (YFPex) and emission measured at 590 nm or 544 nm using gains of 1000-2000. To reduce the background fluorescence associated with media components, the trays are centrifuged at 1200 rpm, RT for 3 min to collect any floating cells, and the media replaced with 200 microliters of 1×PBS prior to detection. For the fLUC protein, protein activity is quantified by luminescence produced during live cell or lysed cell luciferase assays. […] Luminescence was detected using lens filter at gains of 2000-3000. […]

Each structure is given as a SMILES string.

Consider `CNc1ccc2oc(C[C@H]3O[C@@]4(CC[C@H]3C)O[C@H]([C@H](C)C(=O)c3ccc[nH]3)[C@H](C)C[C@H]4C)nc2c1C(=O)O` [calcium ionophore A23187], for which the “increase in number of fLUC positive cells compared to untreated samples” value amounted to 3640% in assay [1] (HEK293 TRdm-fLUC subclone #12, 6.7 micromolar) and 1440% in assay [1] (HEK293 TRdm-fLUC subclone #45, 6.7 micromolar). For the same compound, in the assay on HEK293 cells, the “cell death in HEK293 cells as determined by Trypan blue staining” value is “complete cell death”. The “change in the number of fluorescent cells” value in assay [2] (HEK293 or HEK CMV-EYFP cells) was “no significant change”. For the same compound, the “frequency of fluorescent cells, rise in % of untreated control cultures” value in assay [2] (TRplp-EYFP expressing cells, 6 hr and 10 hr) was 1000-2300%. For the same compound, the “TR response in screening assay” value in assay [3] (HEK293 TRplp-EYFP subclone #41, 6.7 micromolar) is “significant TR responses”; in assay [3] (HEK293 TRplp-fLUC subclone #3, 6.7 micromolar, live cell assay) it was “significant TR responses”.

(Values after US9322034B2, “Compositions and methods for detecting and modulating cell death by a translation regulated gene expression system” (Wayne State University, priority 2007, dated 2016).)
